According to PubChem BioAssay AID1259407 (Chemical Carcinogenesis Research Information System (CCRIS), 2018):
The source made the active and inactive calls. How the calls were made is not given here.

Test system: CCRIS mutagenicity, Ames/micronucleus/aberration tests
Experiment: CCRIS mutagenicity studies
[1] = Test System: AMES SALMONELLA TYPHIMURIUM, Strain/Indicator: TA98, Metabolic Activation: NONE, Method: STANDARD PLATE
[2] = Test System: AMES SALMONELLA TYPHIMURIUM, Strain/Indicator: TA100, Metabolic Activation: NONE, Method: STANDARD PLATE

Q: Which results are given for CC(=O)OC(C)=O?
A: mutagenic call (Test System: AMES SALMONELLA TYPHIMURIUM, Strain/Indicator: TA98, Metabolic Activation: HAMSTER, LIVER, S-9, AROCLOR 1254, Method: STANDARD PLATE): inactive; negative; mutagenic call (Test System: AMES SALMONELLA TYPHIMURIUM, Strain/Indicator: TA98, Metabolic Activation: NONE, Method: PREINCUBATION): inactive; negative; mutagenic call [1]: inactive; negative; mutagenic call (Test System: AMES SALMONELLA TYPHIMURIUM, Strain/Indicator: TA98, Metabolic Activation: RAT, LIVER, S-9, AROCLOR 1254, Method: STANDARD PLATE): inactive; negative; mutagenic call (Test System: AMES SALMONELLA TYPHIMURIUM, Strain/Indicator: TA98, Metabolic Activation: RAT, LIVER, S-9, SODIUM PHENOBARBITAL AND 5,6-BENZOFLAVONE, Method: PREINCUBATION): inactive; negative; mutagenic call (Test System: AMES SALMONELLA TYPHIMURIUM, Strain/Indicator: TA100, Metabolic Activation: HAMSTER, LIVER, S-9, AROCLOR 1254, Method: STANDARD PLATE): inactive; negative; mutagenic call (Test System: AMES SALMONELLA TYPHIMURIUM, Strain/Indicator: TA100, Metabolic Activation: NONE, Method: PREINCUBATION): inactive; negative; mutagenic call [2]: inactive; negative; mutagenic call (Test System: AMES SALMONELLA TYPHIMURIUM, Strain/Indicator: TA100, Metabolic Activation: RAT, LIVER, S-9, AROCLOR 1254, Method: STANDARD PLATE): inactive; negative; mutagenic call (Test System: AMES SALMONELLA TYPHIMURIUM, Strain/Indicator: TA100, Metabolic Activation: RAT, LIVER, S-9, SODIUM PHENOBARBITAL AND 5,6-BENZOFLAVONE, Method: PREINCUBATION): inactive; negative; mutagenic call (Test System: AMES SALMONELLA TYPHIMURIUM, Strain/Indicator: TA102, Metabolic Activation: NONE, Method: PREINCUBATION): inactive; negative; mutagenic call (Test System: AMES SALMONELLA TYPHIMURIUM, Strain/Indicator: TA102, Metabolic Activation: RAT, LIVER, S-9, SODIUM PHENOBARBITAL AND 5,6-BENZOFLAVONE, Method: PREINCUBATION): inactive; negative; mutagenic call (Test System: AMES SALMONELLA TYPHIMURIUM, Strain/Indicator: TA104, Metabolic Activation: NONE, Method: PREINCUBATION): inactive; negative; mutagenic call (Test System: AMES SALMONELLA TYPHIMURIUM, Strain/Indicator: TA104, Metabolic Activation: RAT, LIVER, S-9, SODIUM PHENOBARBITAL AND 5,6-BENZOFLAVONE, Method: PREINCUBATION): inactive; negative; mutagenic call (Test System: AMES SALMONELLA TYPHIMURIUM, Strain/Indicator: TA1535, Metabolic Activation: HAMSTER, LIVER, S-9, AROCLOR 1254, Method: STANDARD PLATE): inactive; negative; mutagenic call (Test System: AMES SALMONELLA TYPHIMURIUM, Strain/Indicator: TA1535, Metabolic Activation: NONE, Method: PREINCUBATION): inactive; negative; mutagenic call (Test System: AMES SALMONELLA TYPHIMURIUM, Strain/Indicator: TA1535, Metabolic Activation: NONE, Method: STANDARD PLATE): inactive; negative; mutagenic call (Test System: AMES SALMONELLA TYPHIMURIUM, Strain/Indicator: TA1535, Metabolic Activation: RAT, LIVER, S-9, AROCLOR 1254, Method: STANDARD PLATE): inactive; negative; mutagenic call (Test System: AMES SALMONELLA TYPHIMURIUM, Strain/Indicator: TA1535, Metabolic Activation: RAT, LIVER, S-9, SODIUM PHENOBARBITAL AND 5,6-BENZOFLAVONE, Method: PREINCUBATION): inactive; negative; mutagenic call (Test System: AMES SALMONELLA TYPHIMURIUM, Strain/Indicator: TA1537, Metabolic Activation: HAMSTER, LIVER, S-9, AROCLOR 1254, Method: STANDARD PLATE): inactive; negative; mutagenic call (Test System: AMES SALMONELLA TYPHIMURIUM, Strain/Indicator: TA1537, Metabolic Activation: NONE, Method: PREINCUBATION): inactive; negative; mutagenic call (Test System: AMES SALMONELLA TYPHIMURIUM, Strain/Indicator: TA1537, Metabolic Activation: NONE, Method: STANDARD PLATE): inactive; negative; mutagenic call (Test System: AMES SALMONELLA TYPHIMURIUM, Strain/Indicator: TA1537, Metabolic Activation: RAT, LIVER, S-9, AROCLOR 1254, Method: STANDARD PLATE): inactive; negative; mutagenic call (Test System: AMES SALMONELLA TYPHIMURIUM, Strain/Indicator: TA1537, Metabolic Activation: RAT, LIVER, S-9, SODIUM PHENOBARBITAL AND 5,6-BENZOFLAVONE, Method: PREINCUBATION): inactive; negative; mutagenic call (Test System: AMES SALMONELLA TYPHIMURIUM, Strain/Indicator: TA1538, Metabolic Activation: HAMSTER, LIVER, S-9, AROCLOR 1254, Method: STANDARD PLATE): inactive; negative; mutagenic call (Test System: AMES SALMONELLA TYPHIMURIUM, Strain/Indicator: TA1538, Metabolic Activation: NONE, Method: STANDARD PLATE): inactive; negative; mutagenic call (Test System: AMES SALMONELLA TYPHIMURIUM, Strain/Indicator: TA1538, Metabolic Activation: RAT, LIVER, S-9, AROCLOR 1254, Method: STANDARD PLATE): inactive; negative; mutagenic call (Test System: E. COLI, Strain/Indicator: WP2UVRA/PKM101, Metabolic Activation: NONE, Method: PREINCUBATION): inactive; negative; mutagenic call (Test System: E. COLI, Strain/Indicator: WP2UVRA/PKM101, Metabolic Activation: RAT, LIVER, S-9, SODIUM PHENOBARBITAL AND 5,6-BENZOFLAVONE, Method: PREINCUBATION): inactive; negative; mutagenic call (Test System: E. COLI, Strain/Indicator: WP2UVRA, Metabolic Activation: NONE, Method: PREINCUBATION): inactive; negative; mutagenic call (Test System: E. COLI, Strain/Indicator: WP2UVRA, Metabolic Activation: RAT, LIVER, S-9, SODIUM PHENOBARBITAL AND 5,6-BENZOFLAVONE, Method: PREINCUBATION): inactive; negative; mutagenic call (Test System: MOUSE LYMPHOMA, Strain/Indicator: L5178Y (TK+/TK-), Metabolic Activation: NONE, Method: SUSPENSION/PLATE): inactive; negative. reevaluation of results: inconclusive; mutagenic call (Test System: Mouse lymphoma, Strain/Indicator: L5178Y (tk+/tk-), Metabolic Activation: Rat, Liver, S-9, Aroclor 1254, Method: Suspension/plate): inactive; inconclusive (previous evaluation negative)

Q: Which results are given for CCCN(CCC)CCc1cccc2[nH]c3c(C)ccc(C)c3c12?
A: mutagenic call [1]: inactive; negative; mutagenic call (Test System: AMES SALMONELLA TYPHIMURIUM, Strain/Indicator: TA98, Metabolic Activation: RAT, LIVER, S-9, PHENOBARBITAL AND 5,6-BENZOFLAVONE, Method: STANDARD PLATE): active; positive; mutagenic call [2]: inactive; negative; mutagenic call (Test System: AMES SALMONELLA TYPHIMURIUM, Strain/Indicator: TA100, Metabolic Activation: RAT, LIVER, S-9, PHENOBARBITAL AND 5,6-BENZOFLAVONE, Method: STANDARD PLATE): active; positive; mutagenic call (Test System: UDS HUMAN HEPATOCYTES, Strain/Indicator: THY INCORP, Metabolic Activation: NONE, Method: IN VITRO): active; positive; mutagenic call (Test System: UDS RAT HEPATOCYTES, Strain/Indicator: THY INCORP, Metabolic Activation: NONE, Method: IN VIVO-IN VITRO): active; positive
